Measurements published in US20260256771A1, “GALUNISERTIB FOR USE IN THE TREATMENT OF ANDROGENIC ALOPECIA” (SAÚDE VIÁVEL, S.A., priority 2022, published 2026).

Experiments:
[1] = system: TGFβ2; test: qRT-PCR of TGFβ transcripts in dermal papilla isolated from HFOCs; format: cell-based, human; settings: Galunisertib-treated HFOCs (10 μM, 48 h)
Description: Concentration and purity are ascertained in a NanoDrop spectrophotometer.
In addition, only anagen hair follicles are used.
(§1) Hair growth percentages is normalized to day 0.

[2] = system: β-catenin; test: Immunohistochemistry of cryo-sectioned HFOCs: β-catenin; format: cell-based, human; settings: DP adjacent epithelial compartment; Galunisertib 48 h vs untreated
Description: as §1
FIG. 6. Galunisertib improves the WNT signaling in the bulb epithelial compartment. a) Representative IHC images of tissue sections of HFOCs with and without Galunisertib and stained for LEF1 (red) and β-catenin (green). Nuclei were counterstained with DAPI (blue). Scale bar, 100 μm. b,e) Adjusted intensity levels of LEF1 and β-catenin per DP and HB (bulb epithelium) areas, as measured in tissue sections from HFOCs with and without Galunisertib. All values are mean±SD of HFOCs established from n=4 donors (n>8 HFs per condition). ns p≥0.05, *p≤0.05 by unpaired t-test.
For immunohistochemistry, 2-day HFOCs are used for immunohistochemistry analysis. Briefly, HFs were embedded on a drop of OCT and stored at −80° C. 8 μm cryosections are air-dried and fixed in 4% PFA (for TGFβ2, cleavage Caspase 3, p-SMAD2 and KI67 immunostainings) or cold acetone (for LEF1 and β-catenin immunostaining). Following 2×5 min rinse with PBS, microsections are permeabilized 2× for 10 min with PBS+0.3% Triton X 100 (PBS-T) and then blocked with PBS+10% fetal bovine serum (FBS) for 1 hour at room temperature. Antibodies are diluted in PBS-T+1% FBS and incubation done overnight at 4° C. […]

[3] = system: C57BL/6 depilated male mice; test: Histology (hematoxylin-eosin) of dorsal skin: number of hair follicles; format: in vivo, mouse
Protocol: FIG. 8. Galunisertib increases anagenic hair follicle growth. a) Hematoxilin-eosin staining of transversal paraffin sections of the dorsal skin of mice treated with vehicle (control), galunisertib (10 μM and 100 μM) or minoxidil at days 0, 5, 7, 14, 16 and 18 of treatment. Scale bar, 500 μm. b) Number of hair follicles per field view and c) number of hair follicles per field view in the subcutaneous layer at different timepoints along the experiment. d) Ki67 immunostaining of longitudinal paraffin sections of the dorsal skin of mice treated with vehicle (control), galunisertib (10 μM and 100 μM) or minoxidil at days 5, 7 and 14. Scale bar, 200 μm. e) Number of Ki67-positive cells in the hair bulb at days 5, 7 and 14. N≥3 animals per timepoint per condition were analyzed, and N≥4 field views were quantified per animal. Values are mean±SD. *p<0.05; **p<0.01 by Student's t-test.
For histology and immunohistochemistry, dorsal skin from the depilated region is collected from mice at different timepoints across the experiment (days 0, 5, 7, 14 and 18) and fixed in 10% buffered formalin, imbedded in paraffin and sectioned along the transversal and longitudinal plan of the hair follicles (3 μm sections). Standard protocol is used for hematoxylin and eosin staining. For immunohistochemistry, slides are deparaffinized, then antigen retrieval is performed using HistoVT One (#06380-05, Nacalai Tesque Inc.) for 40 min in a steamer, following 20 min of cooling at room temperature (RT). After washing with TBS-0.01% Tween (TBS-T), peroxidase is blocked using Bloxall (#SP-6000, Vector Laboratories Inc.) for 10 min. Slides are then washed with TBS-T, and blocked using 2.5% Normal Horse Serum (#MP7500, Impress universal kit, Vector Laboratories Inc.) for 20 min. Following this, slides are incubated with rabbit anti-Ki67 antibody (D3B5) in 0.25% Normal Horse Serum overnight at 4° C. Next day, after thoroughly washing with TBS-T, the slides are incubated with a secondary anti-mouse/anti-rabbit antibody (#MP7500, Impress universal kit, Vector Laboratories Inc.) for 45 min RT. Impact DAB (#SK-4105, Vector Laboratories Inc.) are used to develop the slides, followed by dehydration and mounting with Entellan (#1.07961.0100, Millipore) following standard procedures.

Q: How did the “TGFβ2 gene expression in the DP” value [1] turn out when `Cc1cccc(-c2nn3c(c2-c2ccnc4ccc(C(N)=O)cc24)CCC3)n1` [Galunisertib] was run?
A: inhibit TGFβ2 gene expression

Q: And the β-catenin intensity levels [2]?
A: significantly enhances

Q: And the “number of HFs within the subcutaneous layer (anagenic HFs)” value ([3]; day 5, vs vehicle)?
A: increased number of HFs

Q: And the “number of anagenic HFs” value ([3]; day 5 to day 14)?
A: increased number of anagenic HFs

Q: And the “catagen onset in mice” value ([3]; similar timing in all conditions)?
A: not to be delayed

Q: And the “anagenic hair growth (overall)” value ([3]; similarly to minoxidil, but more efficiently)?
A: improves anagenic hair growth

Q: And the “number of HF (per field view)” value ([3]; transversal HF sections, day 7 to day 14, vs control vehicle treatment)?
A: significant increase in the number of HF

Q: What about the “persistence of the increased number of anagenic HFs” value ([3]; until day 14) of the same molecule?
A: perdures until day 14
